Data published in US8883437B2, “Nitroreductase enzymatic substrates” (bioMérieux S.A., priority 2010, dated 2014).

Experiments:
E. cloacae NCTC 11936 = experiment: Nitroreductase substrate in Columbia medium, growth and colony color; type: cell-based; conditions: 40 mg substrate in 400 ml Columbia medium, 24 hours at 37° C., colonies examined visually
Experimental: (§1) 40 mg of substrate were dissolved in 4 ml of dimethylsulfoxide and added to 400 ml of previously autoclaved Columbia medium. The medium was distributed in Petri dishes 90 mm in diameter at the rate of 20 ml per dish. Ten strains of microorganisms obtained from collections and belonging to various species of bacteria and yeasts are inoculated as spots of about 10 000 colony forming units. The media are incubated for 24 hours at 37° C. and then the colonies formed are examined visually.

P. rettgeri NCTC 7475 = experiment: as above; type: cell-based; conditions: 40 mg substrate in 400 ml Columbia medium, 24 hours at 37° C., colonies examined visually
Experimental: as §1

Question: How did the Color (E. cloacae NCTC 11936) turn out when C[N+]1=C(C=Cc2ccc([N+](=O)[O-])cc2)C(C)(C)c2ccccc21.[I-] [Iodinated 2-(4-nitrostyryl)-1,3,3-trimethylindolinium] was run?
Answer: Pale pink

Question: What about the Color (P. rettgeri NCTC 7475) of the same compound?
Answer: Pale pink
